Literature values as cited in patent publication US20060292225A1, “WATER SOLUBLE ANALGESIC FORMULATIONS AND METHODS FOR PRODUCTION” (priority 2005, published 2006).
Read-outs that look alike come from different tables or passages of the source.

Columns and labels:
[1] = aqueous, hydrolysis

## CC(=O)Oc1ccccc1C(=O)O [aspirin, Acetylsalicylic acid]
[1]
  pH of maximum stability: 2.4
Higher anti-inflammatory dosages
  incidence of side effects (nausea, gastric upset, pain): about 25%
Low analgesic dose levels, adult users
  incidence of side effects (nausea, gastric upset, pain): 2-10%
Arthritis inflammation; daily dosage 2500 mg
  rate of successful treatment: less than 10%
Arthritis inflammation; daily dosages of 4,000 to 5,000 mg or greater
  rate of successful treatment: over 70%
